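1) Cells in 96-well plates. 2) Compound, 48 h, 5 concentrations. 3) Linear interpolation between surrounding doses. 4) Unreached endpoint = highest concentration. Abbreviation: GI50, concentration required for 50% inhibition of growth. TGI: total growth inhibition.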
Legend:
Test in all cases: growth of human tumour cells (NCI), 48 h
NCI-H522 lung = tested on: NCI-H522 lung
SF-539 CNS = tested on: SF-539 CNS
HCT-15 colon = tested on: HCT-15 colon
SN12C renal = tested on: SN12C renal
UACC-62 melanoma = tested on: UACC-62 melanoma
HOP-92 NSCLC = tested on: HOP-92 NSCLC
NCI-H460 lung = tested on: NCI-H460 lung
IGROV1 ovarian = tested on: IGROV1 ovarian
A498 renal = tested on: A498 renal
HT29 colon = tested on: HT29 colon

SMILES	GI50 (NCI-H522 lung)	TGI (NCI-H522 lung)	GI50 (SF-539 CNS)	TGI (SF-539 CNS)	GI50 (HCT-15 colon)	TGI (HCT-15 colon)	GI50 (SN12C renal)	TGI (SN12C renal)	GI50 (UACC-62 melanoma)	TGI (UACC-62 melanoma)	GI50 (HOP-92 NSCLC)	TGI (HOP-92 NSCLC)	GI50 (NCI-H460 lung)	TGI (NCI-H460 lung)	GI50 (IGROV1 ovarian)	TGI (IGROV1 ovarian)	GI50 (A498 renal)	TGI (A498 renal)	TGI (HT29 colon)	GI50 (HT29 colon)
CN(C)Cc1ccc(NC(=O)c2cncc(C#Cc3cnc(N)c4ncccc34)c2)cc1F	17.2 µM	53.9 µM	1.53 µM	3.07 µM	1.73 µM	3.35 µM	1.92 µM	3.56 µM	1.83 µM	3.53 µM	4.53 µM	21.6 µM	1.93 µM	3.63 µM	2.13 µM	3.96 µM	6 µM	29 µM		
COS(C)(=O)=O		> 2 µM		> 2 µM		> 2 µM		> 2 µM		> 2 µM		> 2 µM		> 2 µM		> 2 µM		> 2 µM	> 2 µM	
COc1ccc(S(=O)(=O)Nc2c(/C=C\c3cc(OC)c(OC)c(OC)c3)ccc(OC)c2O)cc1	0.0202 µM	0.0536 µM			0.0366 µM	> 100 µM	0.0869 µM	> 100 µM	0.0389 µM	> 100 µM	1.6 µM	39.7 µM	0.0368 µM	13.7 µM	0.054 µM	> 100 µM	0.0188 µM	0.085 µM	10.8 µM	1.4 µM
CCOC(=O)c1[nH]c2cc(OC)c(OC)cc2c1CN(C)C				> 100 µM		> 100 µM		> 100 µM		> 100 µM		> 100 µM		> 100 µM		> 100 µM		> 100 µM	> 100 µM	
CC1=C(C(=O)Nc2ccc(F)c(Cl)c2)C(c2cccc(Oc3ccccc3)c2)NC(=S)N1 (centres undefined)	8.57 µM	24.3 µM	18.7 µM	44 µM	11.5 µM	33.2 µM	9.27 µM	17.6 µM	10 µM	20.2 µM	21 µM	> 50 µM	13.5 µM	33.6 µM	10.6 µM	37 µM				
COc1cc([N+](=O)[O-])c(S(=O)(=O)O)cc1-n1nc(C(=O)Nc2ccccc2)n[n+]1-c1cc(S(=O)(=O)[O-])c([N+](=O)[O-])cc1OC		> 100 µM				> 100 µM		> 100 µM		> 100 µM		> 100 µM		> 100 µM		> 100 µM			> 100 µM	
COc1cc(-c2nc3ccccc3o2)cc(CN2CCCCC2)c1O	3.26 µM	14.2 µM	2.93 µM	7.68 µM	1.05 µM	26 µM	1.5 µM	4.25 µM	1.63 µM	3.2 µM	27 µM	> 100 µM	2.84 µM	10.9 µM	14 µM	> 100 µM	10 µM	24.5 µM		
CCN(CC)c1ccc(-c2cc(-c3cc(OC)c(OC)c(OC)c3)nc(N3CCC(O)CC3)c2C#N)cc1			0.554 µM	2.47 µM	0.26 µM	1.93 µM	0.626 µM	3.19 µM	0.264 µM	0.662 µM	0.215 µM	0.689 µM	0.245 µM	1.62 µM	0.373 µM	> 27.7 µM	1.07 µM	14.2 µM	1.28 µM	0.277 µM
Oc1ccc(C(O)(c2ccccc2)c2ccccc2)c2ccccc12		7.17 µM		4.62 µM		2.9 µM		6.87 µM		3.61 µM		5.22 µM		> 100 µM		5.62 µM			14.1 µM	
O=C(Nc1cc(F)c(F)cc1C(=O)O)c1ccc(-n2ccnc2)nn1			34.4 µM	> 100 µM	> 100 µM	> 100 µM	> 100 µM	> 100 µM	> 100 µM	> 100 µM	> 100 µM	> 100 µM	> 100 µM	> 100 µM	> 100 µM	> 100 µM	13 µM	82 µM	> 100 µM	> 100 µM
COCCc1n(Cc2ccc3ccccc3c2)c2ccccc2[n+]1Cc1ccc2ccccc2c1									0.384 µM	1.52 µM	0.214 µM	1.13 µM					1.54 µM	2.98 µM	1.51 µM	0.379 µM
NCCCNc1nc2ccccc2c2c(=O)c3cccc(Cl)c3sc12	1.76 µM	3.6 µM	1.63 µM	3.02 µM	1.64 µM	3.16 µM	1.52 µM	3.05 µM	1.67 µM	3.17 µM	1.19 µM	2.63 µM					1.02 µM	2.74 µM		
CC(C)COC1Sc2ccccc2S1						66 µM		36.2 µM		25.8 µM		28.1 µM		24.6 µM		32.3 µM			36.6 µM	
O=C(Nc1cc(Cl)ccc1O)c1ccccc1Nc1ccnc(C(F)(F)F)c1			2.7 µM	9.16 µM	3.55 µM	> 100 µM	2.84 µM	10.7 µM	2.51 µM	10 µM	2.58 µM	8.72 µM	2.99 µM	9.92 µM			2.25 µM	6.4 µM	11.5 µM	3.27 µM
NS(=O)(=O)c1ccc(NC(=O)C2C(=O)C(=O)N(c3ccc(S(N)(=O)=O)cc3)C2=O)cc1 (centres undefined)		> 100 µM		> 100 µM		> 100 µM		> 100 µM		> 100 µM		> 100 µM				> 100 µM		> 100 µM	> 100 µM	
CCC(C)C1=C(O)[N+]2([O-])Oc3ccc(C4=C(O)C(=O)C(c5ccc(O)cc5)=C(O)C4=O)cc3OC2(C(C)CC)C(=O)N1O (centres undefined)	19 µM	> 100 µM	15.8 µM	> 100 µM	5.82 µM	> 100 µM			5.68 µM	65.1 µM	9.29 µM	> 100 µM	4.26 µM	> 100 µM	17 µM	> 100 µM	5.24 µM	41.9 µM	> 100 µM	31.4 µM

— PubChem BioAssay (NCI)
